According to US20080306107A1, “Compounds” (AstraZeneca AB, priority 2004, published 2008):

Target: T1, hVR1 (Homo sapiens, UniProt Q8NER1)
T1 construct: expressed in transfected cells
Test: hVR1 FLIPR (Fluorometric Image Plate Reader) screening assay, IC50 determination
Assay type: cell-based
Conditions: transfected CHO cells stably expressing hVR1; Fluo-4 calcium fluorescence; agonist 50 nM capsaicin or MES buffer pH 5.2
Experimental: 1. hVR1 FLIPR (Fluorometric Image Plate Reader) Screening Assay
Transfected CHO cells, stably expressing hVR1 (15,000 cells/well) are seeded in 50 ul media in a black clear bottom 384 plate (Greiner) and grown in a humidified incubator (37° C., 2% CO2), 24-30 hours prior to experiment.
Subsequently, the media is removed from the cell plate by inversion and 2 μM Fluo-4 is added using a multidrop (Labsystems). Following the 40 minutes dye incubation in the dark at 37° C. and 2% CO2, the extracellular dye present is washed away using an EMBLA (Scatron), leaving the cells in 40 ul of assay buffer (1×HBSS, 10 mM D-Glucose, 1 mM CaCl2, 10 mM HEPES, 10×7.5% NaHCO3 and 2.5 mM Probenecid).
FLIPR Assay —IC50 Determination Protocol
For IC50 determinations the fluorescence is read using FLIPR filter 1 (em […]). A cellular baseline recording is taken for 30 seconds, followed by a 20 μl addition of 10, titrated half-log concentrations of the test compound, yielding cellular concentration ranging from 3 μM to 0.1 nM. […] This consequently leading to a reduction in fluorescence signal and providing a reduced fluorescence reading, compared with no compound, buffer controls. Data is exported by the FLIPR program as a sum of fluorescence calculated under the curve upon the addition of capsaicin. […]

T1 sequence (Q8NER1 whole entry): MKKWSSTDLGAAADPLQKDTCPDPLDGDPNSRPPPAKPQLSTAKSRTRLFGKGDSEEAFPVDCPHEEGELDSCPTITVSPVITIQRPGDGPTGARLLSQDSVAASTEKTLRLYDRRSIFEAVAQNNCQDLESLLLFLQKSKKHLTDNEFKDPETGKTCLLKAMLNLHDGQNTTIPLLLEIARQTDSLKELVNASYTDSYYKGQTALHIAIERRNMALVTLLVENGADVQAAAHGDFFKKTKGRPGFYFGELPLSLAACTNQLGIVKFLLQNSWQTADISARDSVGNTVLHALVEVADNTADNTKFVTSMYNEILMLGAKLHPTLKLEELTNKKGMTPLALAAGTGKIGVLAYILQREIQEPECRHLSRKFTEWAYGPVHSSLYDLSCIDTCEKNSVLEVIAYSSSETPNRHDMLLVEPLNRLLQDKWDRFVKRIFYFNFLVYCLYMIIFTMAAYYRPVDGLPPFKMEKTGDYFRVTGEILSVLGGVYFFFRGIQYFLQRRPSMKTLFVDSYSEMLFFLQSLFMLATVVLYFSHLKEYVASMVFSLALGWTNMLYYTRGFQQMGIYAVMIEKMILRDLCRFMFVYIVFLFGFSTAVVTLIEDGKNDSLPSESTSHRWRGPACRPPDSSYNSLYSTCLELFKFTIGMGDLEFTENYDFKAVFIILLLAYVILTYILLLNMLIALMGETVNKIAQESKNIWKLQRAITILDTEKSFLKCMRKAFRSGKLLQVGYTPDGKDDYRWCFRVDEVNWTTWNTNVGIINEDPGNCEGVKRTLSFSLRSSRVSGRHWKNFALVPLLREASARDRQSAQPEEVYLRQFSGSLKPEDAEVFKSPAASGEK

Row | IC50 | SMILES
1 | 716 nM | Cc1cc(C(F)(F)F)c2c(N)c(C(=O)NCCc3ccccc3)sc2n1 [Compound 11, 3-amino-6-methyl-N-(2-phenylethyl)-4-(trifluoromethyl)thieno[2,3-b]pyridine-2-carboxamide]
2 | 119 nM | Cc1cc(C(F)(F)F)c2c(N)c(C(=O)NCCc3ccccc3C)sc2n1 [Compound 3, 3-amino-6-methyl-N-[2-(2-methylphenyl)ethyl]-4-(trifluoromethyl)thieno[2,3-b]pyridine-2-carboxamide]
